Reference: ChEMBL document CHEMBL4673382, “Cyclin-Dependent Kinase Inhibitors in Cancer Therapeutics” (ACS Med Chem Lett, 2021)

What was measured:
[1] = target: CDK9/cyclin T1 (Homo sapiens, UniProt P50750); experiment: Inhibition of human full-length N-terminal GST-fused CDK9 (1 to 372 residues)/His-tagged Cyclin-T1 (1 to 726 residues) expressed in baculovirus expression system using PEP as substrate incubated for 17 mins in presence of ATP by TR-FRET assay
[2] = target: Cyclin-dependent kinase 4/cyclin D1 (Homo sapiens, UniProt P11802); experiment: Inhibition of recombinant human full-length GST-tagged CDK4/cyclinD1 expressed in baculovirus expression system using PEP as substrate incubated for 3 mins in presence of ATP by TR-FRET assay
Cyclin-dependent kinase 4/cyclin D1, sequence (P11802 whole entry): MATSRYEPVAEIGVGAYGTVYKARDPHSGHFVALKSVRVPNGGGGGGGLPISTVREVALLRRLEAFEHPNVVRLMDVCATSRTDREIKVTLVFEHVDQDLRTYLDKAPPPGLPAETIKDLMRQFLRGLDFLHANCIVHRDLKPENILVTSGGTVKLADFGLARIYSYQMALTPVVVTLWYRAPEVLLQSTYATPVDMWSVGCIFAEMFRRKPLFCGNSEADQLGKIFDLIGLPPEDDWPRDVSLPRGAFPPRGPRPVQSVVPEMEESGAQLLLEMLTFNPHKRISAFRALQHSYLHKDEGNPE
Cyclin-dependent kinase 4/cyclin D1, sequence (P24385 whole entry, further chain): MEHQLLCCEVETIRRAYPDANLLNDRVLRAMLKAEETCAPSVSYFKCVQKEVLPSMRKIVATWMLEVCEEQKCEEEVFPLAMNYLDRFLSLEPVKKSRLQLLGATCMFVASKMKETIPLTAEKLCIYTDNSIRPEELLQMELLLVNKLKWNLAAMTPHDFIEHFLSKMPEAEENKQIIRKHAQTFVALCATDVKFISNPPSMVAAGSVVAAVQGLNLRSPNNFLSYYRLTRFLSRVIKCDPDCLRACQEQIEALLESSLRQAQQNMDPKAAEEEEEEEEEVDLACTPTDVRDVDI

[3] = Half life in rat at 100 mg/kg, po measured up to 48 hrs by LC-MS/MS analysis; type: ADME, organism-based; conditions: in vivo
[4] = Oral bioavailability in rat at 100 mg/kg administered as single dose measured up to 48 hrs by LC-MS/MS analysis; type: ADME, organism-based; conditions: in vivo
[5] = target: CDK6/cyclin D3 (Homo sapiens, UniProt Q00534); experiment: Inhibition of human full-length N-terminal GST tagged CDK6 (1 to 326 residues)/cyclinD3 (1 to 292 residues) expressed in baculovirus expression system using PEP as substrate incubated for 3 mins in presence of ATP by TR-FRET assay
CDK6/cyclin D3, sequence (P30281 whole entry, the tested form may be a part): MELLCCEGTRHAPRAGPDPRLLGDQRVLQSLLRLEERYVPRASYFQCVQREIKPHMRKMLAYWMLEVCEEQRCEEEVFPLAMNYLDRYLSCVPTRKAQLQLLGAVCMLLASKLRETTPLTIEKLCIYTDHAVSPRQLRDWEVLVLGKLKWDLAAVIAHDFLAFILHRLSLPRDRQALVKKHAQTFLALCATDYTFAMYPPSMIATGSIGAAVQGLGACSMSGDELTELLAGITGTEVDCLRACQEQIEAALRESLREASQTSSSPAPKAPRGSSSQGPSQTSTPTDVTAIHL
CDK6/cyclin D3, sequence (Q00534 whole entry, the tested form may be a part): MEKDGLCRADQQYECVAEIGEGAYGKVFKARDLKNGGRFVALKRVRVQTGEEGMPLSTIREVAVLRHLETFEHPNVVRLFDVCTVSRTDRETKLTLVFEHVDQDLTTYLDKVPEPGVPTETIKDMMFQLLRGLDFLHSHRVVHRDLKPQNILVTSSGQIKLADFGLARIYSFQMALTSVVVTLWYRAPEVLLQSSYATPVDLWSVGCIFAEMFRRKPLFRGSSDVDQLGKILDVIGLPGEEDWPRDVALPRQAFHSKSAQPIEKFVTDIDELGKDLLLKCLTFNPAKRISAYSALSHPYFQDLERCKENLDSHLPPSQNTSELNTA

CDK9/cyclin T1, sequence (O60563 whole entry, the tested form may be a part): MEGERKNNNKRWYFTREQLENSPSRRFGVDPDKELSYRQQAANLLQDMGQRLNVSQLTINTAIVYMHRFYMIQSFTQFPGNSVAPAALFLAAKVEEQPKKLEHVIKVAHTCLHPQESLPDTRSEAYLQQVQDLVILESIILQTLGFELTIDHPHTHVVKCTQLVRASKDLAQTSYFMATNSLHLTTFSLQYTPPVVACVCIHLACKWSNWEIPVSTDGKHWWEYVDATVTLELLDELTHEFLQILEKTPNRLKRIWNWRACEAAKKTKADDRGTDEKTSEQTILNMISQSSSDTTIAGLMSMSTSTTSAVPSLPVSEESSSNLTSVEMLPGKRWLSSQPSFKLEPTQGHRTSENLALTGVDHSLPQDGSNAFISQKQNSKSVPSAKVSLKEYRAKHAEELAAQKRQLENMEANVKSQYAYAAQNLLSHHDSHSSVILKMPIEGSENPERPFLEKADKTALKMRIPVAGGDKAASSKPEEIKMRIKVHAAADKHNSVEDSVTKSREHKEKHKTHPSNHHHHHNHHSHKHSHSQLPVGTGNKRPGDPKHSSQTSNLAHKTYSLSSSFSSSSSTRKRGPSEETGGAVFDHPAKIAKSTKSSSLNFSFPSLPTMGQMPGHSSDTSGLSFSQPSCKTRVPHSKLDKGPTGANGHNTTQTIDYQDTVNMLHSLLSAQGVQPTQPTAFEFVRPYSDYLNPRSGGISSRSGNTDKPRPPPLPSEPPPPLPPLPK
CDK9/cyclin T1, sequence (P50750 whole entry, the tested form may be a part): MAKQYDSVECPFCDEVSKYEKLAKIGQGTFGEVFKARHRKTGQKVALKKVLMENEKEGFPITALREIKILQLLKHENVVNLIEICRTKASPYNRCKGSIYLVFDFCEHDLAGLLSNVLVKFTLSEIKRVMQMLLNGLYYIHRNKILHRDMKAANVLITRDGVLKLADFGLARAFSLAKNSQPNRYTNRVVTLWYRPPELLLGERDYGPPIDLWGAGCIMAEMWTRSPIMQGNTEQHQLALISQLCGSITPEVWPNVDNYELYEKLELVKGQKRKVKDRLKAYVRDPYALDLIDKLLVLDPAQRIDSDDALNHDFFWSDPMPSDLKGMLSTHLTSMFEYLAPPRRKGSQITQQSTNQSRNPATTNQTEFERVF

Row | SMILES | IC50 [1] [µM] | IC50 [2] [µM] | half-life [3] [h] | bioavailability [4] [%] | IC50 [5] [µM]
1 | CC(=O)c1c(C)c2cnc(Nc3ccc(N4CC(C)NC(C)C4)cc3)nc2n(C2CCCC2)c1=O (stereo not given) | 0.00603 | < 0.0032 |  |  | 
2 | CN1CCN(c2ccc(Nc3ncc4c(n3)N(C3CCCC3)C3(CC(=O)NC3=O)C4)cc2)CC1 (stereo not given) | 0.0805 | 0.0257 |  |  | 
3 | CN1CCN(c2ccc(Nc3ncc4cc(C(=O)N(C)C)n(C56CC(C5)C6)c4n3)cc2)CC1 | 0.00708 | 0.00381 | 6 | 33.3 | 
4 | CN(C)C(=O)c1cc2cnc(Nc3ccc(N4CCNCC4)c(F)c3)nc2n1C12CC(C1)C2 | 0.00618 | 0.00413 |  |  | 0.0101
5 | CN(C)C(=O)c1cc2cnc(Nc3ccc(N4CCN(CCO)CC4)c(F)c3)nc2n1C12CC(C1)C2 | < 0.0032 | < 0.0032 |  |  | 
6 | CC(=O)c1c(C)c2cnc(Nc3ccc(N(C)CCN(C)C)cc3)nc2n(C23CC(C2)C3)c1=O | 0.149 | 0.03 |  |  | 
7 | CN1CCN(c2ccc(Nc3ncc4c(n3)N(C3CCCC3)C3(CCNC3=O)C4)cc2F)CC1 (stereo not given) | 0.0466 | 0.0517 |  |  | 0.258
8 | CN1CCN(c2ccc(Nc3ncc4c(n3)N(C3CCCC3)C3(CC(=O)NC3=O)C4)cc2F)CC1 (stereo not given) | 0.0234 | 0.0144 |  |  | 0.0706
9 | CC(=O)c1c(C)c2cnc(Nc3ccc(N(C)CCN(C)C)cc3)nc2n(C2CCCC2)c1=O | 0.00713 | < 0.0032 |  |  | 
10 | CC(C)N1CCN(c2ccc(Nc3ncc4c(n3)N(C3CCCC3)C3(CC(=O)NC3=O)C4)cc2)CC1 (stereo not given) | 0.0707 | 0.0284 |  |  | 
11 | CC(=O)c1c(C)c2cnc(Nc3ccc(OCCN(C)C)c(F)c3)nc2n(C2CCCC2)c1=O | 0.0318 | 0.003 |  |  | 0.0101
12 | CN1CCN(C2CCN(c3ccc(Nc4ncc5cc(C(=O)N(C)C)n(C67CC(C6)C7)c5n4)cc3F)CC2)CC1 | 0.00755 | 0.00378 |  |  | 
